{"source": "patent US10398676B2", "about": "“Use of alpha-hydroxy carbonyl compounds as reducing agents” (Morvus Technology Ltd, priority 2005, dated 2019)", "key": {"[1]": {"settings": "humans, phase I; cited from earlier work"}, "[2]": {"assay": "DHA reduction of prodrugs and nitro compounds, HPLC initial rate (Examples 5 and 6)", "format": "physicochemical", "settings": "100 μM compound, 10 mM DHA, 37° C.", "procedure": "The assay mixture contained the compound under test (100 μM) and DHA (10 mM) in a final reaction volume of 1 mL of sodium phosphate buffer (of the required pH). The reaction was started by addition of DHA and the mixture is incubated at 37° C."}, "[3]": {"assay": "Chemical activation of tretazicar by DHA in bicarbonate buffer (Example 1)", "format": "physicochemical", "settings": "10 mM DHA, 100 μM tretazicar, 0.1M sodium bicarbonate buffer, 1 ml", "procedure": "The assay was started by addition of 100 μL of 100 mM DHA in water to a mixture of tretazicar (100 μM) in 0.1M sodium bicarbonate buffer, pH 9 or pH10, to give a final volume of 1 ml. The mixture was incubated at 37° C. and aliquots (10 μL) were taken every 6 min and assayed immediately by HPLC [Partisil 10 SCX (42×150 mm) (Whatman, Maidstone, Kent, U.K.] eluted isocratically with 0.13 M sodium phosphate (pH 5) at 1.5 mL/min). The concentration of tretazicar was determined in each sample by reference of the corresponding peak area with an external standard, quantified by absorbance at 325 nm. Initial rates were calculated by curve fitting (FigP, Biosoft, Cambridge, U.K.). Reduction products were identified by retention time relative to an authentic standard."}, "[4]": {"settings": "bioactivated versus non-activated; cited from earlier work"}, "DNA": {"system": "DNA", "settings": "cited from earlier work"}}, "data": [{"molecule": "NC(=O)c1cc(N2CC2)c([N+](=O)[O-])cc1[N+](=O)[O-]", "note": "[Tretazicar, 5-(aziridin-1-yl)-2,4-dinitrobenzamide]", "values": [{"measurement": "MTD", "setting": "[1]", "value": 37.5, "unit": "mg/m^2"}, {"measurement": "dose safely administered without any significant toxicity", "setting": "[1]", "value": "up to 24 mg/m^2"}, {"measurement": "INITIAL RATE, 0.1 M PO4, pH7.5", "setting": "[2]; 0.1 M PO4, pH7.5", "value": "<0.01", "unit": "nmoles/min/mL"}, {"measurement": "INITIAL RATE, 0.1 M PO4, pH8", "setting": "[2]; 0.1 M PO4, pH8", "value": 0.158, "unit": "nmoles/min/mL"}, {"measurement": "Initial Rate, pH 8", "setting": "[2]; pH 8", "value": 0.158, "unit": "nmoles/min/mL"}, {"measurement": "Initial Rate, pH 9", "setting": "[2]; pH 9", "value": 0.933, "unit": "nmoles/min/mL"}, {"measurement": "Initial Rate, pH 10", "setting": "[2]; pH 10", "value": 1.248, "unit": "nmoles/min/mL"}, {"measurement": "Initial Rate, pH 10.6", "setting": "[2]; pH 10.6", "value": 5.801, "unit": "nmoles/min/mL"}, {"measurement": "rate of tretazicar reduction by DHA at pH 9", "setting": "[3]; pH 9, 37° C.", "value": 0.92, "unit": "nmol/min"}, {"measurement": "rate of tretazicar reduction by DHA at pH 10", "setting": "[3]; pH 10, 37° C.", "value": 0.69, "unit": "nmol/min"}, {"measurement": "dose modification resulting from bioactivation (increase in cytotoxicity)", "setting": "[4]", "value": "up to 100,000 fold"}, {"measurement": "increase in the amount of DNA-bound drug", "setting": "DNA; Walker cells compared to cells which cannot reduce tretazicar (Friedlos et al, 1992)", "value": 10, "unit": "fold"}, {"measurement": "interstrand crosslinks as share of total lesions / total DNA reactions", "setting": "DNA; literature values (Friedlos et al, 1992; Knox et al, 1986)", "value": "up to 70%"}]}]}
